Reference: patent US20120264735A1 (priority 2009, published 2012)

Biological target: T1, c-Met kinase (recombinant c-Met) (Homo sapiens, UniProt P08581)
T1 construct: 0.27 nM recombinant c-Met
Assay: In vitro kinase assay I (homogeneous time-resolved fluorescence tyrosine kinase assay)
Type: biochemical
In short: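 Biotinylated peptide (0.5 μM) phosphorylated by 0.2 nM recombinant c-Met with 50 μM MgATP, 60 min at room temperature, pH 7.4, 5% DMSO. EDTA stop; HTRF read with Eu-anti-phosphotyrosine antibody and streptavidin-APC. IC50 from 4-parameter logistic fit.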

T1 sequence (P08581 25-1390): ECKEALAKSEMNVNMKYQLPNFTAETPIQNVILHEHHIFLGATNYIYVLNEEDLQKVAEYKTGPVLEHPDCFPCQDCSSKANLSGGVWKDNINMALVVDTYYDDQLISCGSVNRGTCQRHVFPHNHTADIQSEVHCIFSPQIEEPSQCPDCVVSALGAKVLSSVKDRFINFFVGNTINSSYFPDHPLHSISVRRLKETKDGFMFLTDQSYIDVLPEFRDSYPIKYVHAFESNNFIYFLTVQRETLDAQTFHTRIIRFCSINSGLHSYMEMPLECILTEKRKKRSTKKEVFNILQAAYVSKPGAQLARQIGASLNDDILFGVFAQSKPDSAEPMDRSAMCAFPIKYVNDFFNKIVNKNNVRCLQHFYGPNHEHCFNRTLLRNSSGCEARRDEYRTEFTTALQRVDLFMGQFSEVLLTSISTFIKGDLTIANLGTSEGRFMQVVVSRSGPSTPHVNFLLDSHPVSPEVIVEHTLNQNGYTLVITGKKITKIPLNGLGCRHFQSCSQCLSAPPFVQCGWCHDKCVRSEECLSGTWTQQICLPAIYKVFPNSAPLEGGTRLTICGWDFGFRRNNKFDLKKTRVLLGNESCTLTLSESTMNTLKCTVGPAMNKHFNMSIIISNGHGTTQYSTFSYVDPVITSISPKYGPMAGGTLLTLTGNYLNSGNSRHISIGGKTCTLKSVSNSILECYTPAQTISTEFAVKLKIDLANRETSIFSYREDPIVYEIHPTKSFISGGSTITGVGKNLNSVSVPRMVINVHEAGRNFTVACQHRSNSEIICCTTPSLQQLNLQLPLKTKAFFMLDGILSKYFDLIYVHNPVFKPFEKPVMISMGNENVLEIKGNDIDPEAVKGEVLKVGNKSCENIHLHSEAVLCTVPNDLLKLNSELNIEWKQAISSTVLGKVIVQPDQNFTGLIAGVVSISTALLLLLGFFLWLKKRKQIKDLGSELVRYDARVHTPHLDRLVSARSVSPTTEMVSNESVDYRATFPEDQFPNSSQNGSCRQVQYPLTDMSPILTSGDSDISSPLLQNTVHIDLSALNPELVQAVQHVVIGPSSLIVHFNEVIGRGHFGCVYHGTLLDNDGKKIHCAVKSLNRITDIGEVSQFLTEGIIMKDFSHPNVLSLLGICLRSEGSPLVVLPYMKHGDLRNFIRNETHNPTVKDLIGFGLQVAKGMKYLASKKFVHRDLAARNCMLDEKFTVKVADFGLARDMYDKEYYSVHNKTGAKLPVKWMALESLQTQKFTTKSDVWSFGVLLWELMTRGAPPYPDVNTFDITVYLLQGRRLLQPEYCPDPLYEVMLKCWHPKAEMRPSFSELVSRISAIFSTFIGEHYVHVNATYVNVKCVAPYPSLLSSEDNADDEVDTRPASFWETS

IC50 [nM]	Structure (SMILES)
1000 to 3000	CC(c1cccc(-c2ncn(C)n2)c1)c1nn(-c2cnn(C)c2)ccc1=O (single isomer, unassigned) [Example 682, 1-(1-methyl-1H-pyrazol-4-yl)-3-{(1S or R)-1-[3-(1-methyl-1H-1,2,4-triazol-3-yl)phenyl]ethyl} pyridazin-4(1H)-one]
< 100	Cn1cc(-n2ccc(=O)c(Cc3cccc(NC(=O)OCC4COCCO4)c3)n2)cn1 (racemic) [Example 568, rac-1,4-dioxan-2-ylmethyl (3-{[1-(1-methyl-1H-pyrazol-4-yl)-4-oxo-1,4-dihydropyridazin-3-yl]methyl}phenyl)carbamate]
< 100	Cn1cc(-n2ccc(=O)c(Cc3cccc(-c4ncc(C(=O)NCC5CCOC5)cn4)c3)n2)cn1 (racemic) [Example 475, rac-2-(3-{[1-(1-methyl-1H-pyrazol-4-yl) 4-oxo-1,4-dihydro-pyridazin-3-yl]methyl}phenyl)-N-(tetrahydro-furan-3-ylmethyl)pyrimidine-5-carboxamide]
< 100	N#Cc1cccc(-n2ccc(=O)c(Cc3cccc(NC(=O)OCCN4CCOCC4=O)c3)n2)c1 [Example 584, 2-(3-oxomorpholin-4-yl)ethyl (3-{[1-(3-cyanophenyl)-4-oxo-1,4-dihydropyridazin-3-yl]methyl}phenyl)carbamate]
< 100	Cn1cc(-n2ccc(=O)c(Cc3cccc(-c4ncc(C(=O)NCC5CCCO5)cn4)c3)n2)cn1 (racemic) [Example 483, rac-2-(3-{[1-(1-methyl-1H-pyrazol-4-yl)-4-oxo-1,4-dihydro-pyridazin-3-yl]methyl}phenyl)-N-(tetrahydro-furan-2-ylmethyl)pyrimidine-5-carboxamide]
< 100	CCC(=O)Nc1cnc(-c2cccc(Cc3nn(-c4cnn(C)c4)ccc3=O)c2)nc1 [Example 460, N-[2-(3-{[1-(1-methyl-1H-pyrazol-4-yl)-4-oxo-1,4-dihydro-pyridazin-3-yl]methyl}phenyl)pyrimidin-5-yl}propanamide]
< 100	CCCCNC(=O)Nc1cccc(Cc2nn(-c3cnn(C)c3)ccc2=O)c1 [Example 494, 1-butyl-3-(3-{[1-(1-methyl-1H-pyrazol-4-yl)-4-oxo-1,4-dihydropyridazin-3-yl]methyl}phenyl)urea]

The remaining lines, values behind:

Structure (SMILES)	IC50 [nM]
CCCn1cnc(-c2cccc(Cc3nn(-c4cccc(C#N)c4)ccc3=O)c2)n1 [Example 85, 3-{4-oxo-3-[3-(1-propyl-1H-1,2,4-triazol-3-yl)benzyl]pyridazin-1(4H)-yl}benzonitrile]	< 100
COc1cnc(-c2cccc(Cc3nn(-c4cnn(CC(C)C)c4)ccc3=O)c2)nc1 [Example 95, 3-[3-(5-methoxypyrimidin-2-yl)benzyl]-1-[1-(2-methylpropyl)-1H-pyrazol-4-yl]pyridazin-4(1H)-one]	< 100
Cn1cc(-n2ccc(=O)c(Cc3ccc4ncc(OCC5(C)COC5)cc4c3)n2)cn1 [Example 62, 3-({3-[(3-methyloxetan-3-yl)methoxy]quinolin-6-yl}methyl)-1-(1-methyl-1H-pyrazol-4-yl)pyridazin-4(1H)-one]	< 100
Cn1cc(-n2ccc(=O)c(Cc3cccc(-c4ncc(-c5ccncc5)cn4)c3)n2)cn1 [Example 409, 1-(1-Methyl-1H-pyrazol-4-yl)-3-{3-[5-(pyridin-4-yl)pyrimidin-2-yl]benzyl}pyridazin-4(1H)-one]	< 100
COCCCOc1cnc(-c2cccc(Cc3nn(-c4ccc(F)c(F)c4)ccc3=O)c2)nc1 [Example 320, 1-(3,4-difluorophenyl)-3-{3-[5-(3-methoxypropoxy)pyrimidin-2-yl]benzyl}pyridazin-4(1H)-one]	< 100
CCOc1cnc(-c2cccc(Cc3nn(-c4cn[nH]c4)ccc3=O)c2)nc1 [Example 195, 3-[3-(5-Ethoxypyrimidin-2-yl)benzyl]-1-(1H-pyrazol-4-yl)pyridazin-4(1H)-one]	< 100
